Experimental data published in patent EP4741379A1, “CLASS OF PROGRAMMED CELL DEATH INHIBITORS, PREPARATION METHOD THEREFOR AND USE THEREOF” (SHANGHAI INSTITUTE OF ORGANIC CHEMISTRY, CHINESE ACADEMY OF …, priority 2023, dated 2025).
Where two headings read alike, the source gives them in different places.

How the values were obtained:
[1] = tested on: FADD-deficient Jurkat cells; assay: TNF-induced programmed necrosis of FADD-deficient Jurkat cells (Cell Titer-Glo viability); format: cell-based, human; settings: Homo sapiens, Jurkat
Procedure: (§1) The biological test protocol is adopted to test effects of the compound on TNF-induced programmed necrosis of FADD (Fas-associated death domain)-deficient Jurkat cells and L929 cells.
(§2) Two different stimulation methods were used: treating with tumor necrosis factor (TNFα) alone, or treating with TNFα in combination of mitochondrial-derived cysteine-aspartate activator (SMAC) SM164. Cell viability was determined by measuring chemiluminescence values, thereby assessing the bioactivity of the compounds in inhibiting programmed cell necrosis.
(§3) Method: FADD-deficient Jurkat cells: FADD-deficient Jurkat cells (human peripheral blood leukemia T cell line) were cultured in vitro. After reaching logarithmic growth phase, cells were collected and centrifuged at 1000 rpm for 5 minutes. A supernatant was discarded. A cell concentration was adjusted to 2.5×10^5/mL, and cells were seeded into a 384-well plate at 40 µL per well. In the corresponding wells, 5 µL of SM164 (50 nM) and compounds diluted with cell culture medium were added. After pre-treatment at 37°C for 1 hour, 5 µL of TNFα (50 ng/mL) diluted with cell culture medium was added to each well as a stimulation group, while 5 µL of culture medium was added as a control group. After the plate was incubated in a cell culture incubator (37°C, 5% CO2) for 14 hours, 15 µL of Cell Titer-Glo solution was added to each well. Then, the plate was incubated at room temperature for 30 minutes. Luminescence was measured to assess intracellular ATP levels. Cell viability was set at 100% for unstimulated DMSO control wells. […] The plate was placed in a cell culture incubator (37°C, 5% CO2) and cultured for 12 hours. In the corresponding wells, 5 µL of SM164 (500 nM) and compounds diluted with cell culture medium were added. After pre-treatment at 37°C for 1 hour, 5 µL of TNFα (500 ng/mL) diluted with cell culture medium was added to the wells as a stimulation group, while 5 µL of culture medium was added as a control group. After the plate was incubated in the cell incubator (37°C, 5% CO2) for 14 hours, 15 µL of Cell Titer-Glo solution was added to each well. Then, the plate was incubated at room temperature for 30 minutes, and luminescence was measured to assess intracellular ATP levels. Cell viability was set at 100% for unstimulated DMSO control wells. EC50 values of the compounds were calculated using Prism GraphPad statistical software.

L929 cells = assay: TNF-induced programmed necrosis of L929 cells (Cell Titer-Glo viability); format: cell-based, mouse; settings: Mus musculus
Procedure: as §1, §2, §3

[2] = stimulation with TNFα + SM164, read-out: EC50 (nM) FADD^-/- Jurkat cells (human-derived) TNFα+ SM164
[3] = stimulation with TNFα alone, read-out: EC50 (nM) FADD^-/- Jurkat cells (human-derived) TNFα
[4] = L929, stimulation with TNFα + SM164, read-out: EC50 (nM) L929 cells (mouse-derived) TNFα+ SM164
[5] = L929, stimulation with TNFα alone, read-out: EC50 (nM) L929 cells (mouse-derived) TNFα
[6] = read-out: EC50 (nM) FADD^-/- Jurkat cells (human-derived) TNFα
[7] = L929, read-out: EC50 (nM) L929 cells (mouse-derived) TNFα

CN1C(=O)[C@@H](NC(=O)c2n[nH]c(Cc3ccccc3)n2)COc2ccccc21 [GSK2982772, reference compound]
EC50 [1, 2]: 4 nM | EC50 [1, 3]: 0.7 nM | EC50 (L929 cells; [4]): > 1000 nM | EC50 (L929 cells; [5]): > 1000 nM

C[C@H](NC(=O)c1nnn(C)c1Cc1ccccc1)c1ccc(C#Cc2nccn2C)cc1 [IRCBC-002]
EC50 [1, 6]: 0.392 nM | EC50 (L929 cells; [7]): 55.7 nM

C[C@H](NC(=O)c1nnn(C)c1Cc1ccccc1)c1ccc(C#Cc2ccnn2C)cc1 [IRCBC-003]
EC50 [1, 6]: 0.095 nM | EC50 (L929 cells; [7]): 1.11 nM

C[C@H](NC(=O)c1nnn(C)c1Cc1ccccc1)c1ccc(C#Cc2ccn(C)n2)cc1 [IRCBC-004]
EC50 [1, 6]: 0.019 nM | EC50 (L929 cells; [7]): 0.558 nM

C[C@H](NC(=O)c1nnn(C)c1Cc1ccccc1)c1ccc(C#Cc2cnc[nH]2)cc1 [IRCBC-005]
EC50 [1, 2]: 1.12 nM | EC50 [1, 3]: 0.019 nM | EC50 (L929 cells; [4]): 3.42 nM | EC50 (L929 cells; [5]): 2.09 nM

C[C@H](NC(=O)c1nnn(C)c1Cc1ccccc1)c1ccc(C#Cc2ncc[nH]2)cc1 [IRCBC-006]
EC50 [1, 6]: 2.03 nM | EC50 (L929 cells; [7]): 81.9 nM

C[C@H](NC(=O)c1nnn(C)c1Cc1ccccc1)c1ccc(C#Cc2nccs2)cc1 [IRCBC-007]
EC50 [1, 6]: 0.072 nM | EC50 (L929 cells; [7]): 0.631 nM

C[C@H](NC(=O)c1nnn(C)c1Cc1ccccc1)c1ccc(C#Cc2ncco2)cc1 [IRCBC-008]
EC50 [1, 6]: 0.055 nM | EC50 (L929 cells; [7]): 1.86 nM

C[C@H](NC(=O)c1nnn(C)c1Cc1ccccc1)c1ccc(C#CC2CCOC2)cc1 (some centres unmarked) [IRCBC-010]
EC50 [1, 2]: 13.4 nM | EC50 [1, 3]: 0.481 nM | EC50 (L929 cells; [4]): 6.71 nM | EC50 (L929 cells; [5]): 3.27 nM

C[C@H](NC(=O)c1nnn(C)c1Cc1cccc(Cl)c1)c1ccc(C#Cc2ccccn2)cc1 [IRCBC-016]
EC50 [1, 6]: 1.69 nM | EC50 (L929 cells; [7]): 5.85 nM

C[C@H](NC(=O)c1cnn(C)c1Cc1cc(F)cc(F)c1)c1ccc(C#Cc2ccccn2)cc1 [IRCBC-033]
EC50 [1, 2]: 1.57 nM | EC50 [1, 3]: 0.066 nM | EC50 (L929 cells; [4]): 4.11 nM | EC50 (L929 cells; [5]): 0.771 nM

COC(C)(C)C#Cc1ccc([C@H](C)NC(=O)c2nnn(C)c2Cc2ccccc2)cc1 [IRCBC-036]
EC50 [1, 6]: 0.222 nM | EC50 (L929 cells; [7]): 13.1 nM

C[C@H](NC(=O)c1nnn(C)c1Cc1ccccc1)c1ccc(C#Cc2cnn(C3CC3)c2)cc1 [IRCBC-041]
EC50 [1, 6]: 0.004 nM | EC50 (L929 cells; [7]): 0.771 nM

C[C@H](NC(=O)c1nnn(C)c1Cc1ccccc1)c1ccc(N2CCN(C)C(=O)C2)cc1 [IRCBC-043]
EC50 [1, 2]: 5.11 nM | EC50 [1, 3]: 0.683 nM | EC50 (L929 cells; L929, stimulation with TNFα + SM164, µM, read-out: EC50 L929 cells (mouse-derived) TNFα+ SM164): > 1000 nM | EC50 (L929 cells; L929, stimulation with TNFα alone, µM, read-out: EC50 L929 cells (mouse-derived) TNFα): > 1000 nM

C[C@H](NC(=O)c1nnn(C)c1Cc1ccccc1)c1ccc(C#Cc2ncccn2)cc1 [IRCBC-046]
EC50 [1, 2]: 0.087 nM | EC50 [1, 3]: 0.001 nM | EC50 (L929 cells; [4]): 0.43 nM | EC50 (L929 cells; [5]): 0.203 nM

C[C@H](NC(=O)c1nnn(C)c1Cc1ccccc1)c1ccc(C#Cc2cnccn2)cc1 [IRCBC-048]
EC50 [1, 6]: 0.018 nM | EC50 (L929 cells; [7]): 2.93 nM

C[C@H](NC(=O)c1nnn(C)c1Cc1ccccc1)c1ccc(C#Cc2ccc(F)cn2)cc1 [IRCBC-049]
EC50 [1, 6]: 0.002 nM | EC50 (L929 cells; [7]): 0.118 nM

C[C@H](NC(=O)c1nnn(C)c1Cc1ccccc1)c1ccc(C#Cc2ccc(Cl)cn2)cc1 [IRCBC-050]
EC50 [1, 6]: 0.001 nM | EC50 (L929 cells; [7]): 0.105 nM

C[C@H](NC(=O)c1nnn(C)c1Cc1ccccc1)c1ccc(C#Cc2ccc(C#N)cn2)cc1 [IRCBC-051]
EC50 [1, 2]: 0.845 nM | EC50 [1, 3]: 0.006 nM | EC50 (L929 cells; [4]): 4.53 nM | EC50 (L929 cells; [5]): 1.62 nM

COc1ccc(C#Cc2ccc([C@H](C)NC(=O)c3nnn(C)c3Cc3ccccc3)cc2)nc1 [IRCBC-052]
EC50 [1, 6]: 0.001 nM | EC50 (L929 cells; [7]): 0.068 nM

C[C@H](NC(=O)c1nnn(C)c1Cc1ccccc1)c1ccc(C#Cc2ccc(N(C)C)cn2)cc1 [IRCBC-053]
EC50 [1, 2]: 0.001 nM | EC50 (L929 cells; [4]): 0.011 nM | EC50 (L929 cells; [5]): 0.004 nM

C[C@H](NC(=O)c1nnn(C)c1Cc1ccccc1)c1ccc(C#Cc2ccncc2F)cc1 [IRCBC-054]
EC50 [1, 6]: 0.001 nM | EC50 (L929 cells; [7]): 0.103 nM

Cn1nnc(C(=O)NCc2ccc(C#Cc3ccccn3)nc2)c1Cc1ccccc1 [IRCBC-057]
EC50 [1, 2]: 3.9 nM | EC50 [1, 3]: 0.537 nM | EC50 (L929 cells; [4]): 35.5 nM | EC50 (L929 cells; [5]): 12.6 nM

Cn1nnc(C(=O)NCc2ccc(C#Cc3ccccn3)c(F)c2)c1Cc1ccccc1 [IRCBC-058]
EC50 [1, 2]: 1.25 nM | EC50 [1, 3]: 0.018 nM | EC50 (L929 cells; [4]): 35.2 nM | EC50 (L929 cells; [5]): 1.5 nM

Cn1nnc(C(=O)NCc2ccc(C#Cc3ccccn3)cc2F)c1Cc1ccccc1 [IRCBC-059]
EC50 [1, 2]: 2.26 nM | EC50 [1, 3]: 0.025 nM | EC50 (L929 cells; [4]): 14.8 nM | EC50 (L929 cells; [5]): 3.07 nM

C[C@H](NC(=O)c1nnn(C)c1Cc1ccccc1F)c1ccc(C#Cc2ccccn2)cc1 [IRCBC-067]
EC50 [1, 2]: 0.261 nM | EC50 [1, 3]: 0.004 nM | EC50 (L929 cells; [4]): 0.887 nM | EC50 (L929 cells; [5]): 0.264 nM

C[C@H](NC(=O)c1nnn(C)c1Cc1ccc(C#N)cc1)c1ccc(C#Cc2ccccn2)cc1 [IRCBC-071]
EC50 [1, 2]: 0.641 nM | EC50 [1, 3]: 0.006 nM | EC50 (L929 cells; [4]): 2.99 nM | EC50 (L929 cells; [5]): 0.914 nM

C[C@H](NC(=O)c1nnn(C)c1Cc1ccccc1)c1ccc(C#Cc2ncc(N(C)C)cn2)cc1 [IRCBC-097]
EC50 (L929 cells; [4]): 0.003 nM | EC50 (L929 cells; [5]): 0.001 nM

CNc1ccc(C#Cc2ccc([C@H](C)NC(=O)c3nnn(C)c3Cc3ccccc3)cc2)nc1 [IRCBC-102]
EC50 (L929 cells; [4]): 0.018 nM | EC50 (L929 cells; [5]): 0.01 nM

C[C@H](NC(=O)c1nnn(C)c1Cc1ccccc1)c1ccc(C#Cc2ccc(N3CCOCC3)cn2)cc1 [IRCBC-105]
EC50 (L929 cells; [4]): 0.004 nM | EC50 (L929 cells; [5]): 0.008 nM

C[C@H](NC(=O)c1nnn(C)c1Cc1ccccc1)c1ccc(C#Cc2ncc3nc[nH]c3n2)cc1 [IRCBC-129]
EC50 (L929 cells; [4]): 0.196 nM | EC50 (L929 cells; [5]): 0.06 nM

CC(C)Nc1ccc(C#Cc2ccc([C@H](C)NC(=O)c3nnn(C)c3Cc3ccccc3)cc2)nc1 [IRCBC-146]
EC50 (L929 cells; [4]): 0.0014 nM

[2H]C([2H])([2H])Nc1ccc(C#Cc2ccc([C@H](C)NC(=O)c3nnn(C)c3Cc3ccccc3)cc2)nc1 [IRCBC-150]
EC50 (L929 cells; [4]): 0.001 nM | EC50 (L929 cells; [5]): 0.001 nM

C[C@H](NC(=O)c1nnn(C)c1Cc1ccccc1)c1ccc(C#Cc2ncc(N3CCOCC3)cc2C#N)cc1 [IRCBC-154]
EC50 (L929 cells; [4]): 0.002 nM

CNc1cnc(C#Cc2ccc([C@H](C)NC(=O)c3nnn(C)c3Cc3ccccc3)cc2)nc1 [IRCBC-160]
EC50 (L929 cells; [4]): 0.00234 nM

C[C@H](NC(=O)c1nnn(C)c1Cc1ccccc1)c1ccc(C#Cc2ncc(N)cn2)cc1 [IRCBC-161]
EC50 (L929 cells; [4]): 0.002 nM | EC50 (L929 cells; [5]): 0.002 nM

[2H]C([2H])([2H])Nc1cnc(C#Cc2ccc([C@H](C)NC(=O)c3nnn(C)c3Cc3ccccc3)cc2)nc1 [IRCBC-256]
EC50 (L929 cells; [4]): 0.00121 nM

[2H]C([2H])([2H])Nc1cnc(C#Cc2ccc([C@H](C)NC(=O)c3nnn(C)c3Cc3ccccc3)cc2)c(C#N)c1 [IRCBC-257]
EC50 (L929 cells; [4]): 0.00117 nM

C[C@H](NC(=O)c1nnn(C)c1Cc1ccccc1)c1ccc(C#Cc2ncc(N3CC(N(C)C)C3)cn2)cc1 [IRCBC-259]
EC50 (L929 cells; [4]): 0.001 nM

CC(C)Nc1cnc(C#Cc2ccc([C@H](C)NC(=O)c3nnn(C)c3Cc3ccccc3)cc2)nc1 [IRCBC-269]
EC50 [1, 2]: 0.00168 nM
